In the experiment the test system is T1, CTX-M β-lactamase (ESBL).
T1 construct: gene blaCTX-M
Put plainly: nitrocefin hydrolysis colorimetric assay (kit MAK222) with cell-free lysate of ESBL-producing E. coli. The format is biochemical.

`O=C(O)[C@H]1/C(=C/CO)O[C@@H]2CC(=O)N21` [clavulanic acid]: the Value clavulanic acid stood at 8.1223 µg/mL.

In turn, `COC(=O)/C=C/c1ccccc1` [Methyl cinnamate] had a Value methyl cinnamate of 11.6008 µg/mL.

Source of the values: publication PMC9578474, “In vitro and in silico β-lactamase inhibitory properties and phytochemical profile of Ocimum basilicum cultivated in central delta of Egypt” (Pharmaceutical Biology, 2022).
